Here are results for 1 molecule from patent US10105401B2, “Composition comprising bioactive amino acids and/or peptides and marine oil in a stable oil-in-water emulsion, and the use of said composition as a functional or therapeutic composition” (SMARTFISH AS, priority 2009, dated 2018).

The conditions of series [1]: when supplemented as part of Smartfish; skeletal muscle, heart, brain.
Method: The tissues were finally analyzed for the content of carnosine, both labeled and non-labeled.
This amount equals 200 mg/kg per day. After one week, the following organs were dissected out; gastrocnemius, heart and brain and immediately frozen in liquid nitrogen, and stored at −80° C.
Carnosine (Sigma-Aldrich) and 15N13C2-labeled carnosine (Sigma-Aldrich) concentrations in tissue were determined by HPLC-MS/MS operated in MRM mode.
Mouse tissues were homogenized in Methanolic HCL using a pellet grinder with cordless motor (Kontes). The homogenate was incubated for 30 min at 50° C. This procedure homogenized the tissue, precipitated proteins and methylated the carboxcylic acid group.
After centrifugation, the supernatant were injected directly into the LC-MS/MS system. Calibrators were prepared by methylation of non labeled carnosine in methanolic HCl. The HPLC column used was a Zorbax XDB 150×4.6 mm ID with 5 μm particles. A gradient elution starting with 10% MeOH in water and 4 g/l ammonium acetate 40% MeOH for 3 minutes changing linearly to 100% methanol over 3.5 minutes was used to separate carnosine from other constituents.
The conditions of series [2]: cited from earlier work.

Each structure is given as a SMILES string.

With `NCCC(=O)O` [β-alanine], in series [1], the “bioavailability and tissue uptake of β-alanine” value is “bioavailable and taken up by all the three target tissues”. Also, the “reduction of muscle carnosine levels per week in washout” value in series [2] (human volunteers, nine week washout after six weeks of β-alanine) is on record as 2.5-3.5 % reduction/week. Moreover, the “average increase in muscle carnosine” value in series [2] (humans, six week period, 4.8 g β-alanine per day) was 27%.
